In brackets after ≈: the same amount, converted by molar mass. Where two headings read alike, the source gives them in different places.
Tests used:
[1] = test system: K562 human leukemia cell line; experiment: In vitro anti-cancer efficacy, K562, trypan blue dye exclusion, 48 hours; format: cell-based; conditions: for IC50 / IC90: Homo sapiens, K562; for IC50: read-out: K562 IC50; for IC90: read-out: K562 IC90
Procedure: (§1) The above compounds were dissolved in DMSO at stock concentration of 10 mg/ml and stored at 4° C. Before each experiment they were diluted to desired concentration with serum-free RPMI 1640 medium
1. K562 human leukemia cell line: K562 cells were maintained in RPMI 1640 medium with 5% fetal bovine serum at 37° C. under 5% CO2 atmosphere. 4×10^4 cells/well were plated on 96-well plate. After treatment with the test compounds and solvent control (DMSO) for 48 hours, numbers of live cells were counted by trypan blue dye exclusion.
(§2) Reagents and Methods: same as in Experiment 1.

ICR strain mice = experiment: Acute toxicity, gavage administration; format: in vivo, mouse (ICR strain); conditions: 2.5 g/kg twice a day, 14 days monitoring
Procedure: The acute toxicity tests were assessed for two administration routes, through gavage and subcutaneous injection.
Thus, the acute toxicity test was conducted in twenty ICR strain mice, weighing 18–20 g. The Sample was given through gavage at dosage of 2.5 g/kg, twice a day. Continuous monitoring was made for 14 days.

[2] = test system: B16 mouse melanoma cell line; experiment: In vitro anti-cancer efficacy, B16, SRB method, 48 hours; format: cell-based; conditions: for IC50 / IC90: Mus musculus; for IC50: read-out: B16 IC50; for IC90: read-out: B16 IC90
Procedure: as §1
2. B16 mouse melanoma cell line: B16 cells were maintained under the same condition as above. 2×10^4 cells/well were plated on 48-well plate and left for 12 hours for attachment. Cells were then treated with the test compounds and solvent control for 48 hours. Numbers of live cells were determined by SRB method. Briefly, cells were fixed with 50 μl/well 15% TCA for 1 hour, and then washed three times with double-distilled water. After drying 50 μl/well 1% SRB dye was added and reacted for 10 minutes. Plate was washed with 1% acetic acid. 0.2 ml Tris buffer (pH 9.6) was added and OD510 was recorded.
as §2

[3] = test system: Mouse cervical carcinoma U14; experiment: In vivo anti-cancer efficacy, solid tumor model; conditions: for Tumor W.: ± SD
Text: Mouse cervical carcinoma U14 model was used to compare in vivo anti-cancer efficacy of 15-methyl-2-hexadecenoic acid, 13-methyl-tetradecanoic acid and the chemotherapy drug cytoxan (CTX).
40 male ICR strain mice, weighing 19–22 g, were randomly divided into 4 groups of 10 each. U14 cervical carcinoma mass (about 2 mm^3 each) was transplanted subcutaneously into the right armpits of all animals following standard procedure. The test group was given 15-methyl-2-hexadecenoic acid and 13-methyl-tetradecanoic acid at 0.4 g/kg, respectively, intragastrically (i.g.) daily for 11 days. The positive control group was given a single dose of CTX i.g. (25 mg/kg) on day 1. Negative control group was given normal saline (N.S.) at 0.2 ml/10 g daily for 11 days. On the 12th day, all mice were sacrificed and the tumors were isolated and weighed. The tumor inhibition rate (TIR) was calculated and subject to t test.

[4] = test system: human breast carcinoma MCF7ras; format: in vivo; conditions: for Body weight D1 / Body weight D23: MCF7ras nude mice; for Body weight D1: day 1 (baseline); for Body weight D1 / Tumor W.: X ± SD; for Body weight D23 / TIR (tumor inhibition rate, (C-T)/C percentage) / Tumor W.: day 23, test 400 mg/kg gavage daily, CTX 25 mg/kg
Procedure: Thirty female Balb/c-nu/nu athymic mice, 6 weeks old, weighing 18–22 g, were housed in specific pathogen free (SPF) condition throughout the course of the experiment.
Subcutaneous transplantation of human breast carcinoma MCF7ras was carried out under aseptic condition. Tumor mass was cut into fragments (approximately 0.18×0.18×0.20 mm in size), and injected s.c. into the right mammary fat pad of each animal with a trocar. The mice were randomized into control and test groups of ten mice each. The day after transplantation, the mice in the test group were given through gavage 13-methyl-2-tetradecenoic acid at 400 mg/kg daily. The mice in two control groups were administered with CTX at 25 mg/kg and N.S. at 0.2 ml/10 g. All animals were sacrificed on day 23. The body weights and tumor weights were measured. The tumor inhibition rates (TIR) were determined by comparing the mean tumor weight of the test groups (T) with that of the control group (C) and expressed as a (C-T)/C percentage, and were analyzed by Student's test for statistical significance.

[5] = format: in vivo, mouse (ICR strain); conditions: single agent i.g.: Sample (N-(13-methyl-tetradecanoyl)-4-amino-1,2-benzenediol) 0.4 g/kg; CTX 25 mg/kg
Text: The mice were sacrificed after delayed hypersensitivity test above and the thymus and […] were collected and weighed.

Serum Hemolysinogenesis = format: in vivo, mouse (ICR strain)
Procedure: 50 male ICR strain mice, weighing 20–23 g, were randomly divided into 5 groups of 10 each. The method of administration in each group was the same as above phagocytic function). However, on the 6th day after administration, 0.2 ml 3:5 (VN) sheep red blood cell (RBC) suspension was injected i.p. into each mouse. 4 days later (day 10), blood was drawn from all animals and serum was prepared and then diluted 600 times. 1 ml diluted serum was mixed with 0.5 ml 10% sheep RBC suspension. N.S. was used as blank control. All samples were incubated at 37° C. for 30 minutes, and centrifuged (2000 rev/min) for 5 minutes. The supernatant was collected for measurement of OD540 and HC50 was calculated.

[6] = test system: Phagocytic Function of Reticuloendothelial System; format: in vivo, mouse (ICR strain)
Procedure: 50 female ICR strain mice, weighing 19–24 g, were randomly divided into 5 groups of 10 each. One group was given N.S. at 20 ml/kg i.g. as a normal control. A positive control group was given CTX i.g. at 25 mg/kg on day 1 and 6. A third group was given N-(13-methyl-tetradecanoyl)-4amino-1,2-benzenediol (Sample) only at 400 mg/kg i. g. The remaining two groups were given both CTX (25 mg/kg on day 1 and 6) and Sample (100 mg/kg and 400 mg/kg, respectively). All treatments except CTX were administered daily for 9 days. 30 minutes after the last administration, 0.15 ml Yidege (1:10) was injected into the tail vein of each mouse. 1 minute and 5 minutes after, blood was drawn and 20 μl serum was mixed with 0.1% […]. OD680 was measured and the clearance index K=(1 gOD1–1 gOD2)/(t2−t1) was calculated.

Delayed Hypersensitivity = experiment: Delayed hypersensitivity (sheep RBC); format: in vivo, mouse (ICR strain)
Procedure: 50 female ICR strain mice, weighing 18–21 g, were randomly divided into 5 groups of 10 each. The method of administration in each group was the same as above phagocytic function). However, on the 5th day after administration, each mouse was injected with 50 μl 10% sheep RBC suspension through tail vein. 4 days later (day 9), each mouse was injected intradermally with 20 μl 10 sheep RBC suspension or normal saline into metatarus of the left or right hind limbs, respectively. The digital thickness of each mouse was measured 24 hours later, and the difference in thickness between left and right digits was subject to t test analysis.

HAC cells = format: in vivo; conditions: for Body Weight after treatment / Extension Rate (of life span) / Survival Time: test 0.4 g/kg i.g. daily till death, 5-FU 25 mg/kg i.g. day 1, 3, 5
Procedure: 30 female ICR strain mice, weighing 18–21 g, were randomly divided into 3 groups of 10 each. 0.2 ml of HAC cell suspension (10^7 cells/ml) was injected intraperitoneally (i.p.) into all animals. The test group was given 2-(12-Methyl-tridecyl)-5-mercapto-1,3,4-thiadiazole at 0.4 g/kg i.g. daily till death. The positive control group was given 5-Flurouracil (5-Fu) i.g. at 25 mg/kg on day 1, 3, and 5. The negative control group was given N.S. at 20 ml/kg daily as in test groups. The length of survival of each group was recorded and rate of extension of life span was calculated and subject to t test.

[7] = Table 2, unit inferred, methods same as in Experiment 1
[8] = day 12, test compounds 0.4 g/kg i.g. daily 11 days, CTX 25 mg/kg i.g. single dose
[9] = single agent i.g.: Sample (N-(13-methyl-tetradecanoyl)-4-amino-1,2-benzenediol) 0.4 g/kg, CTX 25 mg/kg, X ± SD

15-Methyl-2-hexadecanoic acid [Compound 29]
K562 IC50 [1, 7]: 10.1 µg/mL | K562 IC90 [1, 7]: 17.7 µg/mL | observation after gavage (ICR strain mice): No major anomaly was observed | LD50 (ICR strain mice; mice): > 5000 mg/kg | B16 IC50 [2, 7]: 6.8 µg/mL | B16 IC90 [2, 7]: 10.5 µg/mL | TIR (tumor inhibition rate) [3, 8]: 81.0% | Tumor W. [3, 8]: 0.50 ± 0.29 g | Body W. D1 ([3]; mouse, in vivo): 20.6 ± 0.7 g

CC(C)CCCCCCCCCC=CC(=O)O [13-methyl-2-tetradecenoic acid]
Body weight D1 [4]: 20.3 ± 0.5 g | Body weight D23 [4]: 24.4 ± 1.1 g | TIR (tumor inhibition rate, (C-T)/C percentage) [4]: 74.3% | Tumor W. [4]: 0.47 ± 0.31 g

CC(C)CCCCCCCCCCCC(=O)O [13-methyl-tetradecanoic acid]
TIR (tumor inhibition rate) [3, 8]: 64.6% | Tumor W. [3, 8]: 0.93 ± 0.32 g | Body W. D1 ([3]; mouse, in vivo): 20.7 ± 0.7 g

O=P1(N(CCCl)CCCl)NCCCO1 (stereo not shown) [CTX, cytoxan, reference compound]
Indices of pancreas [5]: 2.287 ± 1.023 mg/10 g avoirdupois | Indices of thymus [5]: 1.387 ± 0.701 mg/10 g avoirdupois | Body weight D1 [4]: 20.4 ± 0.4 g | Body weight D23 [4]: 18.6 ± 0.2 g | TIR (tumor inhibition rate, (C-T)/C percentage) [4]: 76.5% | Tumor W. [4]: 0.43 ± 0.15 g | HC50 (Serum Hemolysinogenesis; [9]): 22.51 ± 4.30 | K (clearance index of carbon grain) ([6]; single agent i.g.: Sample (N-(13-methyl-tetradecanoyl)-4-amino-1,2-benzenediol) 400 mg/kg daily 9 days, CTX 25 mg/kg day 1 and 6, X ± SD): 0.0238 ± 0.0161 | Body W. D1 ([3]; U14 mice, day 1 (baseline), X ± SD): 20.6 ± 0.5 g | Body W. D12 ([3]; U14 mice, day 12, test compounds 0.4 g/kg i.g. daily 11 days, CTX 25 mg/kg i.g. single dose): 22.6 ± 1.2 g | TIR (tumor inhibition rate) [3, 8]: 82.5% | Tumor W. [3, 8]: 0.46 ± 0.17 g | Difference in thickness between left and right palm (Delayed Hypersensitivity; [9]): 1.25 ± 0.48 mm

CC(C)CCCCCCCCCCCC(=O)Nc1ccc(O)c(O)c1 [Compound 1, N-(3,4-Dihydroxyphenyl)-13-methyl tetradecanamide]
IC50 ([1]; Table 1, 48 hours): 4.98 µg/mL (≈ 14.2 µM) | IC90 ([1]; Table 1, 48 hours): 10.1 µg/mL (≈ 28.9 µM) | effects on serum hemolysinogenesis in either normal or immune-compromised mouse (Serum Hemolysinogenesis; in words): no obvious effects | effect on the Clearance Index of Carbon grain in normal mouse ([6]; 400 mg/kg i.g., in words): no obvious effect | IC50 ([2]; Table 1, 48 hours): 5.12 µg/mL (≈ 14.6 µM) | IC90 ([2]; Table 1, 48 hours): 9.28 µg/mL (≈ 26.6 µM) | inhibitory effect to the delayed hypersensitivity of both normal and CTX-treated mice (Delayed Hypersensitivity; in words): no inhibitory effect

O=c1[nH]cc(F)c(=O)[nH]1 [Compound 5-FU, 5-Flurouracil, reference compound]
Body Weight after treatment (HAC cells; HAC mice): 43.4 ± 12.8 g | Extension Rate (of life span) (HAC cells; HAC mice): 47.4% | Survival Time (HAC cells; HAC mice, X ± SD): 14.3 ± 1.5 days | Body Weight before treatment (HAC cells; mouse, in vivo): 19.5 ± 1.2 g

CC(C)CCCCCCCCCCCc1nnc(S)s1 [Compound 30, 2-(12-Methyl-tridecyl)-5-mercapto-1,3,4-thiadazole]
Body Weight before treatment (HAC cells; HAC mice, X ± SD): 19.6 ± 1.3 g | Body Weight after treatment (HAC cells; HAC mice): 46.5 ± 6.1 g | Extension Rate (of life span) (HAC cells; HAC mice): 72.2% | Survival Time (HAC cells; HAC mice, X ± SD): 16.7 ± 1.8 days | K562 IC50 ([1]; Table 1, 48 hours): 6.10 µg/mL | K562 IC90 ([1]; Table 1, 48 hours): 8.75 µg/mL | B16 IC50 ([2]; Table 1, 48 hours): 5.16 µg/mL | B16 IC90 ([2]; Table 1, 48 hours): 8.05 µg/mL

CC(C)(C)CCCCCCCCCCCC(=O)O [Compound 31, 13,13-Dimethyl-tetradecanoic acid]
IC50 ([1]; Table 1, 48 hours): 24.6 µg/mL (≈ 95.9 µM) | IC90 ([1]; Table 1, 48 hours): 37.5 µg/mL (≈ 146 µM) | IC50 ([2]; Table 1, 48 hours): 20.4 µg/mL (≈ 79.6 µM) | IC90 ([2]; Table 1, 48 hours): 35.6 µg/mL (≈ 139 µM) | melting point: 37 to 39 °C

(2,3,4-Trihydroxy phenyl)-12-methyl tridecanone [Compound 20]
K562 IC50 ([1]; Table 1, 48 hours): 15.3 µg/mL | K562 IC90 ([1]; Table 1, 48 hours): 20.2 µg/mL | B16 IC50 ([2]; Table 1, 48 hours): 14.8 µg/mL | B16 IC90 ([2]; Table 1, 48 hours): 19.32 µg/mL

(2,4,6-Trihydroxyphenyl)-12-methyl tridecanone [Compound 19]
K562 IC50 ([1]; Table 1, 48 hours): 5.13 µg/mL | K562 IC90 ([1]; Table 1, 48 hours): 6.80 µg/mL | B16 IC50 ([2]; Table 1, 48 hours): 4.93 µg/mL | B16 IC90 ([2]; Table 1, 48 hours): 6.11 µg/mL
